Values quoted from earlier work as cited in article PMC7584476, “Safety and efficacy of BAY1436032 in IDH1-mutant AML: phase I study results” (Leukemia, 2020).
Like-named read-outs stand apart in the source and are kept apart here.

Tests used:
mIDH1 AML = tested on: mIDH1 AML; parameters: method as in PMID 29860938; conditions: cited from earlier work
primary AML samples = conditions: cited from earlier work

SMILES	Half-life (mIDH1 AML) [h]	≥grade 3 TEAE IDH DS (mIDH1 AML) [%]	≥grade 3 TEAE QT prolongation (mIDH1 AML) [%]	Median overall survival (mIDH1 AML; similar populations, 95% CI 6.7–10.2) [months]	Number of colony-forming cells (primary AML samples; ref MH, unpublished)	Number of colony-forming cells (primary AML samples)
N#Cc1ccnc(N2C(=O)CC[C@H]2C(=O)N(c2cncc(F)c2)[C@H](C(=O)NC2CC(F)(F)C2)c2ccccc2Cl)c1 [ivosidenib]	72 to 138	4	8	8.8	increased	–
CC(C)(O)CNc1nc(Nc2ccnc(C(F)(F)F)c2)nc(-c2cccc(C(F)(F)F)n2)n1 [enasidenib]	–	–	–	–	–	increased
